A short description of data set [1]: Relative ion enhancement, determined in pulsed ultrafiltration. The format is ADME.
The target in data set [2] is T1, Adenosine deaminase (Homo sapiens) (UniProt P00813).
T1 sequence (whole entry): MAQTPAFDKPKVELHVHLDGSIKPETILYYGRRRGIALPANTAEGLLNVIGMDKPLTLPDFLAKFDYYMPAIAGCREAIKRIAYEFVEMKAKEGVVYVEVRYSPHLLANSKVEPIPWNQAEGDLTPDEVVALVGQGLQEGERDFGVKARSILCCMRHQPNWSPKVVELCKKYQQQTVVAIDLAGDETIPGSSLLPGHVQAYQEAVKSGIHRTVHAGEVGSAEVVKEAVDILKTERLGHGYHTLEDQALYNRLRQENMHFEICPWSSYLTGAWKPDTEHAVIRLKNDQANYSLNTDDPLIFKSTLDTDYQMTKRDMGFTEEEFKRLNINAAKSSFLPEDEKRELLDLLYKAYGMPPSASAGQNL
Description: Adenosine deaminase inhibition index

Each structure is given as a SMILES string. Some results are limits rather than exact numbers.

For `CCCCCC[C@@H]([C@@H](C)O)n1cnc2c(N)ncnc21` [EHNA], in data set [1], the Ion enhancement is given as 1. The molecule also displayed a ([I]/[S]0.5) in data set [2] of 0.00042.

As for `CCCCCCCCC(C(C)O)n1cnc2c(N)ncnc21` (stereo unspecified), the Ion enhancement in data set [1] came out at 5.3. In data set [2], this molecule showed a ([I]/[S]0.5) of 0.00016.

`CC(O)C(Cc1ccccc1)n1cnc2c(N)ncnc21` (stereo unspecified): in data set [1], the Ion enhancement is listed as less than 0.01. Further, the ([I]/[S]0.5) in data set [2] came out at 0.069.

These data come from ChEMBL document CHEMBL1130254, “Screening solution-phase combinatorial libraries using pulsed ultrafiltration/electrospray mass spectrometry” (J Med Chem, 1997).
